# Measurements taken from US11007196B1, “Method for preparing composition of matter comprising fluorouracil and zinc-mercury-selenium quantum dot” (priority 2020, dated 2021).
# Test system: human gastric cancer MGC-803 cells
# Protocol: Pharmaceutical reagents were divided into four groups including ZnHgSe quantum dot group, DMF group, DMF-QD group and blank control group. Human gastric cancer MGC-803 cells in exponential phase were digested with trypsin, followed by addition of medium containing 10% fetal bovine serum to make a single cell suspension. The cells were seeded in a 96-well cell culture plate (100 μL of cell suspension was added to each well, containing 9×10^3 cells) and cultured in an incubator of 37° C. and 5% CO2 for 24 h until the cells adhered to the wall of the 96-well plate. Three groups of drug solutions with concentration gradients were added (ZnHgSe quantum dot gradient: 2400 μg·mL^−1, 1200 μg·mL^−1, 600 μg mL^−1, 300 μg·mL^−1, 150 μg·mL^−1, and 75 μg·mL^−1; DMF gradient: 800 μg mL^−1, 400 μg·mL^−1, 200 μg·mL^−1, 100 μg·mL^−1, 50 μg·mL^−1, and 25 μg·mL^−1; corresponding DMF-QD gradient was determined according to DMF concentration by equivalent conversion). Each group was repeated with 6 wells, with an additional zero-adjustment well and a control well. […] The absorbance value OD of each well was measured by an enzyme-linked immunosorbent detector at a wavelength of 490 nm, and the cell growth inhibition rate (IC50) was calculated. IC50 value was calculated according to the modified Karber's method: […]
substance,measurement,value
dextran-magnetic layered double hydroxide-fluorouracil [DMF],cytotoxicity per unit mass relative to quantum dots,about 2.6 times
